Earlier results, collected in patent US5047532A, “Isolation and elucidation of Cephalostatins 5 and 6” (Arizona Board of Regents, acting on behalf of Arizona State …, priority 1989, dated 1991).

System: murine P388 lymphocytic leukemia (PS cell line)
Conditions: Pettit et al, J. Chem. Soc. Chem. Commun. 85 (1988)

C[C@@H]1[C@]2(O[C@H]3C=C4[C@@H]5CC[C@H]6Cc7nc8c(nc7C[C@]6(C)[C@H]5C[C@@H](O)[C@]4(C)[C@]31O)C[C@@H]1CC[C@H]3C4=CC[C@@H]5[C@H](C)[C@@]6(OC[C@]45C(=O)C[C@@H]3[C@@]1(C)C8)OC(C)(C)C[C@H]6O)O[C@](C)(CO)C[C@H]2O [Cephalostatin 1]
murine P388 lymphocytic leukemia (PS system) cell growth inhibition: cell growth inhibitor
